Measurements taken from patent US11407771B2 (priority 2018, dated 2022).
Where two headings read alike, the source gives them in different places.

Assays:
MAPK13 [1] = biological target: T1, MAPK13 (Homo sapiens (Human), UniProt O15264); test: biochemical
MAPK13 [2] = biological target: T1, MAPK13

T1 sequence (O15264 whole entry): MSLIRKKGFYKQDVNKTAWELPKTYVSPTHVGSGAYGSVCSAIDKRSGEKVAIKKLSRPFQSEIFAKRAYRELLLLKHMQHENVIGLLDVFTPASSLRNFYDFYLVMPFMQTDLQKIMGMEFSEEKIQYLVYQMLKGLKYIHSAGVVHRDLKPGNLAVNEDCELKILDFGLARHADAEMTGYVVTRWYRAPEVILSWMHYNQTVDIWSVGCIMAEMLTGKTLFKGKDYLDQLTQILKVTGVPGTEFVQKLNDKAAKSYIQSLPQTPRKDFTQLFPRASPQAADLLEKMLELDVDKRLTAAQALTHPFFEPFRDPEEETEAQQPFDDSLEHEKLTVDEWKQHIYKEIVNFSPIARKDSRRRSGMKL

**Q.** How did the IC50 (MAPK13 [1]) turn out when `COCC(=O)Nc1cc(Oc2ccc(NC(=O)Nc3cc(C4(C)COC4)nn3-c3ccc(C)cc3)c(F)c2)ccn1` [Compound 267, N-[4-[3-fluoro-4-[[5-(3-methyloxetan-3-yl)-2-(p-tolyl)pyrazol-3-yl]carbamoylamino]phenoxy]-2-pyridyl]-2-methoxy-acetamide] was run?
**A.** < 250 nM

**Q.** For `Cc1ccc(-n2nc(C(C)(C)C)cc2NC(=O)Nc2ncc(CCc3ccncc3)s2)cc1` [Compound 270, 1-(5-tert-Butyl-2-p-tolyl-2H-pyrazol-3-yl)-3-[5-(2-pyridin-4-yl-ethyl)-thiazol-2-yl]-urea], which IC50 (MAPK13 [1]) is on record?
**A.** 250 to 1000 nM

**Q.** Which IC50 (MAPK13 [1]) does the source give for `Cc1ccc(-n2nc(C3(C)COC3)cc2NC(=O)Nc2ncc(CCc3ccncc3)s2)cc1` [Compound 271] here?
**A.** 250 to 1000 nM

**Q.** For `Cc1ccc(-n2nc(C(C)(C)C)cc2NC(=O)Nc2ncc(CCc3ccnc(NC(=O)OCc4ccccc4)c3)s2)cc1` [Compound 277, [4-(2-{2-[3-(5-tert-Butyl-2-p-tolyl-2H-pyrazol-3-yl)-ureido]-thiazol-5-yl}-ethyl)-pyridin-2-yl]-carbamic acid benzyl ester], which IC50 (MAPK13 [1]) is on record?
**A.** 250 to 1000 nM

**Q.** How did the IC50 (MAPK13 [1]) turn out when `Cc1ccc(-n2nc(C(C)(C)CO)cc2NC(=O)Nc2ccc(Oc3ccncc3)cc2F)cc1` [Compound 279, 1-[2-Fluoro-4-(pyridin-4-yloxy)-phenyl]-3-[5-(2-hydroxy-1,1-dimethyl-ethyl)-2-p-tolyl-2H-pyrazol-3-yl]-urea] was run?
**A.** 250 to 1000 nM

**Q.** `Cc1ccc(-n2nc(C(C)(C)CO)cc2NC(=O)Nc2ccc(Oc3ccncc3)cc2)cc1` [Compound 280, 1-[5-(2-Hydroxy-1,1-dimethyl-ethyl)-2-p-tolyl-2H-pyrazol-3-yl]-3-[4-(pyridin-4-yloxy)-phenyl]-urea] was tested. Which IC50 (MAPK13 [1]) did it give?
**A.** 250 to 1000 nM

**Q.** Which IC50 (MAPK13 [2]; read-out: MAPK13 inhibition) does the source give for `CC(=O)Nc1cc(CCc2ccc(NC(=O)Nc3cc(C(C)(C)C)nn3C)c(F)c2)ccn1` [Compound 361, N-[4-(2-{4-[3-(5-tert-Butyl-2-methyl-2H-pyrazol-3-yl)-ureido]-3-fluoro-phenyl}-ethyl)-pyridin-2-yl]-acetamide] here?
**A.** > 1000 nM

**Q.** For `CCOC(=O)Nc1cc(CCc2cnc(NC(=O)Nc3cc(C(C)(C)C)on3)s2)ccn1` [Compound 364, [4-(2-{2-[3-(5-tert-Butyl-isoxazol-3-yl)-ureido]-thiazol-5-yl}-ethyl)-pyridin-2-yl]-carbamic acid ethyl ester], which IC50 (MAPK13 [2]; read-out: MAPK13 inhibition) is on record?
**A.** < 250 nM

**Q.** `CC(=O)Nc1cc(CCc2cnc(NC(=O)Nc3cc(C(C)(C)C)on3)s2)ccn1` [Compound 366, N-[4-(2-{2-[3-(5-tert-Butyl-isoxazol-3-yl)-ureido]-thiazol-5-yl}-ethyl)-pyridin-2-yl]-acetamide] was tested. Which IC50 (MAPK13 [2]; read-out: MAPK13 inhibition) did it give?
**A.** < 250 nM

**Q.** With `CC(C)(C)c1cc(NC(=O)Nc2ncc(CCc3ccnc(NC(=O)C4CC4)c3)s2)[nH]n1` [Compound 368, Cyclopropanecarboxylic acid [4-(2-{2-[3-(5-tert-butyl-2H-pyrazol-3-yl)-ureido]-thiazol-5-yl}-ethyl)-pyridin-2-yl]-amide] as the molecule, how does the IC50 (MAPK13 [2]; read-out: MAPK13 inhibition) read?
**A.** < 250 nM

**Q.** Which IC50 (MAPK13 [2]; read-out: MAPK13 inhibition) does the source give for `CC(C)(C)c1cc(NC(=O)Nc2ncc(CCc3ccnc(NC(=O)C4CC4)c3)s2)no1` [Compound 369, Cyclopropanecarboxylic acid [4-(2-{2-[3-(5-tert-butyl-isoxazol-3-yl)-ureido]-thiazol-5-yl}-ethyl)-pyridin-2-yl]-amide] here?
**A.** < 250 nM

**Q.** For `CC(=O)Nc1cc(CCc2ccc(NC(=O)Nc3cc(C(C)(C)C)nn3CC3CC3)c(F)c2)ccn1` [Compound 370, N-[4-(2-{4-[3-(5-tert-Butyl-2-cyclopropylmethyl-2H-pyrazol-3-yl)-ureido]-3-fluoro-phenyl}-ethyl)-pyridin-2-yl]-acetamide], which IC50 (MAPK13 [2]; read-out: MAPK13 inhibition) is on record?
**A.** > 1000 nM

**Q.** Which IC50 (MAPK13 [2]; read-out: MAPK13 inhibition) does the source give for `CC(=O)Nc1cc(CCc2ccc(NC(=O)Nc3cc(C(C)(C)C)nn3C(C)C)c(F)c2)ccn1` [Compound 371, N-[4-(2-{4-[3-(5-tert-Butyl-2-isopropyl-2H-pyrazol-3-yl)-ureido]-3-fluoro-phenyl}-ethyl)-pyridin-2-yl]-acetamide] here?
**A.** > 1000 nM

**Q.** With `CC(C)(C)c1cc(NC(=O)Nc2ccc(CCc3ccnc(NC(=O)C4CC4)c3)cc2F)n(CC2CC2)n1` [Compound 372, Cyclopropanecarboxylic acid [4-(2-{4-[3-(5-tert-butyl-2-cyclopropylmethyl-2H-pyrazol-3-yl)-ureido]-3-fluoro-phenyl}-ethyl)-pyridin-2-yl]-amide] as the molecule, how does the IC50 (MAPK13 [2]; read-out: MAPK13 inhibition) read?
**A.** > 1000 nM

**Q.** `CC(C)(C)c1cc(NC(=O)Nc2ccc(CCc3ccnc(NC(=O)C4CC4)c3)cc2F)on1` [Compound 374, Cycloproprinecarboxylic acid [4-(2-{4-[3-(3-tert-butyl-isoxazol-5-yl)-ureido]-3-fluoro-phenyl}-ethyl)-pyridin-2-yl]-amide] was tested. Which IC50 (MAPK13 [2]; read-out: MAPK13 inhibition) did it give?
**A.** > 1000 nM

**Q.** `CC(C)n1nc(C(C)(C)C)cc1NC(=O)Nc1ccc(CCc2ccnc(NC(=O)C3CC3)c2)cc1F` [Compound 375, Cyclopropanecarboxylic acid [4-(2-{4-[3-(5-tert-butyl-2-isopropyl-2H-pyrazol-3-yl)-ureido]-3-fluoro-phenyl}-ethyl)-pyridin-2-yl]-amide] was tested. Which IC50 (MAPK13 [2]; read-out: MAPK13 inhibition) did it give?
**A.** > 1000 nM

**Q.** Which IC50 (MAPK13 [2]; read-out: MAPK13 inhibition) does the source give for `CC(C)(C)c1cccc(NC(=O)Nc2ccc(CCc3ccnc(NC(=O)C4CC4)c3)cc2F)c1` [Compound 376, Cyclopropancearboxylic acid [4-(2-{4-[3-(3-tert-butyl-phenyl)-ureido]-3-fluoro-phenyl}-ethyl)-pyridin-2-yl]-amide] here?
**A.** > 1000 nM

**Q.** With `CC(=O)Nc1cc(CCc2ccc(NC(=O)Nc3cccc(C(C)(C)C)c3)c(F)c2)ccn1` [Compound 377, N-[4-(2-{4-[3-(3-tert-Butyl-phenyl)-ureido]-3-fluoro-phenyl}-ethyl)-pyridin-2-yl]-acetamide] as the molecule, how does the IC50 (MAPK13 [2]; read-out: MAPK13 inhibition) read?
**A.** > 1000 nM

**Q.** Which IC50 (MAPK13 [2]; read-out: MAPK13 inhibition) does the source give for `CC(C)(C)c1cc(NC(=O)Nc2ccc(CCc3ccnc(NC(=O)C4CC4)c3)cc2F)no1` [Compound 378, Cyclopropanecarboxylic acid [4-(2-{4-[3-(5-tert-butyl-isoxazol-3-yl)-ureido]-3-fluoro-phenyl}-ethyl)-pyridin-2-yl]-amide] here?
**A.** > 1000 nM

**Q.** With `CC(=O)Nc1cc(CCc2cnc(NC(=O)Nc3cc(C(C)(C)C)no3)s2)ccn1` [Compound 382] as the molecule, how does the IC50 (MAPK13 [2]; read-out: MAPK13 inhibition) read?
**A.** < 250 nM

**Q.** Which IC50 (MAPK13 [2]; read-out: MAPK13 inhibition) does the source give for `CC(C)(C)c1ccc(Cl)c(NC(=O)Nc2ncc(CCc3ccncc3)s2)c1` [Compound 388, 1-(5-tert-Butyl-2-chloro-phenyl)-3-[5-(2-pyridin-4-yl-thiazol)-thiazol-2-yl]-urea] here?
**A.** > 1000 nM

**Q.** `CC(C)n1nc(C(C)(C)C)cc1NC(=O)Nc1ncc(CCc2ccncc2)s1` [Compound 389, 1-(5-tert-Butyl-2-isopropyl-2H-pyrazol-3-yl)-3-[5-(2-pyridin-4-yl-ethyl)-thiazol-2-yl]-urea] was tested. Which IC50 (MAPK13 [2]; read-out: MAPK13 inhibition) did it give?
**A.** > 1000 nM

**Q.** Which IC50 (MAPK13 [2]; read-out: MAPK13 inhibition) does the source give for `CC(C)(C)c1cc(NC(=O)Nc2ncc(CCc3ccnc(NC(=O)C4CC4)c3)s2)n(-c2ccc(Cl)cc2)n1` [Compound 390, N-[4-[2-[2-[[5-tert-butyl-2-(4-chlorophenyl)pyrazol-3-yl]carbamoylamino]thiazol-5-yl]ethyl]-2-pyridyl]cyclopropanecarboxamide] here?
**A.** < 250 nM

**Q.** With `CC(=O)Nc1cc(Oc2ccc(NC(=O)Nc3cc(C(C)(C)C)nn3C(C)C)c(F)c2)ccn1` [Compound 392, N-(4-{4-[3-(5-tert-Butyl-2-isopropyl-2H-pyrazol-3-yl)-ureido]-3-fluoro-phenoxy}-pyridin-2-yl)-acetamide] as the molecule, how does the IC50 (MAPK13 [2]; read-out: MAPK13 inhibition) read?
**A.** < 250 nM

**Q.** How did the IC50 (MAPK13 [2]; read-out: MAPK13 IC50) turn out when `CC(=O)Nc1cc(Oc2ccc(NC(=O)Nc3cc(C(C)(C)C)on3)c(F)c2)ccn1` [Compound 394, N-(4-{4-[3-(5-tert-Butyl-isoxazol-3-yl)-ureido]-3-fluoro-phenoxy}-pyridin-2-yl)-acetamide] was run?
**A.** 9 nM

**Q.** And the IC50 (MAPK13 [2]; read-out: MAPK13 inhibition)?
**A.** < 250 nM

**Q.** For `CC(=O)Nc1cc(Oc2ccc(NC(=O)Nc3cc(C(C)(C)C)no3)c(F)c2)ccn1` [Compound 395, N-(4-{4-[3-(3-tert-Butyl-isoxazol-5-yl)-ureido]-3-fluoro-phenoxy}-pyridin-2-yl)-acetamide], which IC50 (MAPK13 [2]; read-out: MAPK13 IC50) is on record?
**A.** 11 nM

**Q.** What about the IC50 (MAPK13 [2]; read-out: MAPK13 inhibition) of the same molecule?
**A.** < 250 nM

**Q.** How did the IC50 (MAPK13 [2]; read-out: MAPK13 inhibition) turn out when `CC(=O)Nc1cc(Oc2ccc(NC(=O)Nc3cc([Si](C)(C)C)ccc3F)c(F)c2)ccn1` [Compound 399, N-(4-{3-Fluoro-4-[3-(2-fluoro-5-trimethylsilanyl-phenyl)-ureido]-phenoxy}-pyridin-2-yl)-acetamide] was run?
**A.** < 250 nM

**Q.** For `CC(=O)Nc1cc(CCc2cnc(NC(=O)Nc3cc([Si](C)(C)C)ccc3F)s2)ccn1` [Compound 400, N-[4-(2-{2-[3-(2-Fluoro-5-trimethylsilanyl-phenyl)-ureido]-thiazol-5-yl}-ethyl)-pyridin-2-yl]-acetamide], which IC50 (MAPK13 [2]; read-out: MAPK13 inhibition) is on record?
**A.** < 250 nM

**Q.** For `CC(=O)Nc1cc(COc2ccc(NC(=O)Nc3cc(C(C)(C)C)nn3-c3ccc(C)cc3)c(F)c2)ccn1` [Compound 402, N-(4-{4-[3-(5-tert-Butyl-2-p-tolyl-2H-pyrazol-3-yl)-ureido]-3-fluoro-phenoxymethyl}-pyridin-2-yl)-acetamide], which IC50 (MAPK13 [2]; read-out: MAPK13 inhibition) is on record?
**A.** < 250 nM

**Q.** `CC(=O)Nc1cc(Oc2ccc(NC(=O)Nc3cc(C4CC4)ccc3Cl)c(F)c2)ccn1` [Compound 423, N-(4-{4-[3-(2-Chloro-5-cyclopropyl-phenyl)-ureido]-3-fluoro-phenoxy}-pyridin-2-yl)-acetamide] was tested. Which IC50 (MAPK13 [2]; read-out: MAPK13 inhibition) did it give?
**A.** < 250 nM

**Q.** How did the IC50 (MAPK13 [2]; read-out: MAPK13 inhibition) turn out when `O=C(CO)Nc1cc(Oc2ccc(NC(=O)Nc3cc(C4CC4)ccc3F)c(F)c2)ccn1` [Compound 424, N-(4-{4-[3-(5-Cyclopropyl-2-fluoro-phenyl)-ureido]-3-fluoro-phenoxy}-pyridin-2-yl)-2-hydroxy-acetamide] was run?
**A.** < 250 nM

**Q.** `COCCC(=O)Nc1cc(Oc2ccc(NC(=O)Nc3cc(C4CC4)ccc3F)c(F)c2)ccn1` [Compound 425, N-(4-{4-[3-(5-Cyclopropyl-2-fluoro-phenyl)-ureido]-3-fluoro-phenoxy}-pyridin-2-yl)-3 methoxypropionamide] was tested. Which IC50 (MAPK13 [2]; read-out: MAPK13 inhibition) did it give?
**A.** < 250 nM

**Q.** How did the IC50 (MAPK13 [2]; read-out: MAPK13 inhibition) turn out when `CC(C)(C)c1ccc(Cl)c(NC(=O)Nc2ccc(Oc3ccnc(NC(=O)CO)c3)cc2F)c1` [Compound 426, N-(4-{4-[3-(5-tert-Butyl-2-chloro-phenyl)-ureido]-3-fluoro-phenoxy}-pyridin-2-yl)-2-hydroxy-acetamide] was run?
**A.** < 250 nM

**Q.** With `COCCC(=O)Nc1cc(Oc2ccc(NC(=O)Nc3cc(C(C)(C)C)ccc3Cl)c(F)c2)ccn1` [Compound 427, N-(4-{4-[3-(5-tert-Butyl-2-chloro-phenyl)-ureido]-3-fluoro-phenoxy}-pyridin-2-yl)-3-methoxy-propionamide] as the molecule, how does the IC50 (MAPK13 [2]; read-out: MAPK13 inhibition) read?
**A.** < 250 nM

**Q.** `CC(C)(C)c1ccc(Cl)c(NC(=O)Nc2ccc(Oc3ccnc(N)c3)cc2F)c1` [Compound 428, 1-[4-(2-Amino-pyridin-4-yloxy)-2-fluoro-phenyl]-3-(5-tert-butyl-2-chloro-phenyl)-urea] was tested. Which IC50 (MAPK13 [2]; read-out: MAPK13 inhibition) did it give?
**A.** > 1000 nM
